Experimental data taken from ChEMBL document CHEMBL4190323, “New racemic annulated pyrazolo[1,2-b]phthalazines as tacrine-like AChE inhibitors with potential use in Alzheimer's disease” (Eur J Med Chem, 2017).
Activity calls are given as the source filed them. The rule behind the calls is not given here.

Tests used:
Cholinesterase = Cholinesterase (Equus caballus, UniProt P81908); assay: Inhibition of equine serum BuChE using butyrylthiocholine iodide as substrate preincubated for 10 mins followed by substrate addition measured for 6 mins by Ellman's method
Acetylcholinesterase [1] = target: T1, Acetylcholinesterase (Electrophorus electricus, UniProt O42275); assay: Inhibition of electric eel AChE using acetylthiocholine iodide as substrate preincubated for 10 mins followed by substrate addition measured for 6 mins by Ellman's method
in vitro [2] = settings: human, HepG2 cells
Description: Cytotoxicity against human HepG2 cells assessed as cell viability at 1 uM after 24 hrs by MTT assay relative to control

in vitro [3] = settings: human, HepG2 cells; remark: listed apart in the source
Description: Cytotoxicity against human HepG2 cells assessed as cell viability at 50 uM after 24 hrs by MTT assay relative to control

in vitro [4] = settings: human, HepG2 cells; remark: listed apart in the source
Description: Cytotoxicity against human HepG2 cells assessed as cell viability at 5 uM after 24 hrs by MTT assay relative to control

in vitro [5] = settings: human, HepG2 cells; remark: listed apart in the source
Description: Cytotoxicity against human HepG2 cells assessed as cell viability at 300 uM after 24 hrs by MTT assay relative to control

in vitro [6] = settings: human, HepG2 cells; remark: listed apart in the source
Description: Cytotoxicity against human HepG2 cells assessed as cell viability at 100 uM after 24 hrs by MTT assay relative to control

in vitro [7] = settings: human, HepG2 cells; remark: listed apart in the source
Description: Cytotoxicity against human HepG2 cells assessed as cell viability at 25 uM after 24 hrs by MTT assay relative to control

in vitro [8] = settings: human, HepG2 cells; remark: listed apart in the source
Description: Cytotoxicity against human HepG2 cells assessed as cell viability at 10 uM after 24 hrs by MTT assay relative to control

PC-12 [9] = assay: Neuroprotective activity in rat PC12 cells assessed as decrease in H2O2 mediated apoptosis at 10 uM preincubated for 3 hrs followed by H2O2 challenge measured after 24 hrs by MTT assay; format: functional, cell-based
PC-12 [10] = assay: Neuroprotective activity in rat PC12 cells assessed as decrease in H2O2 mediated apoptosis at 1 uM preincubated for 3 hrs followed by H2O2 challenge measured after 24 hrs by MTT assay; format: functional, cell-based
PC-12 [11] = assay: Neurotoxicity in rat PC12 cells assessed as reduction in cell viability at 1 to 10 uM after 24 hrs by MTT assay; format: toxicity, cell-based; settings: pc-12, 24 h
PC-12 [12] = assay: Neuroprotective activity in rat PC12 cells assessed as decrease in H2O2-mediated apoptosis at 100 uM preincubated for 3 hrs followed by H2O2 challenge measured after 24 hrs by MTT assay; format: functional, cell-based
Acetylcholinesterase [13] = target: T1, Acetylcholinesterase; assay: Mixed-type inhibition of electric eel AChE using acetylthiocholine iodide as substrate preincubated for 10 mins followed by substrate addition measured for 6 mins by Lineweaver-Burk plot analysis
[14] = target: Acetylcholinesterase (Electrophorus electricus) (UniProt O42275); assay: Potency index, ratio of IC50 for tacrine to IC50 for test compound for electric eel AChE
Sequence of Acetylcholinesterase (Electrophorus electricus) (O42275 24-633 limits assumed): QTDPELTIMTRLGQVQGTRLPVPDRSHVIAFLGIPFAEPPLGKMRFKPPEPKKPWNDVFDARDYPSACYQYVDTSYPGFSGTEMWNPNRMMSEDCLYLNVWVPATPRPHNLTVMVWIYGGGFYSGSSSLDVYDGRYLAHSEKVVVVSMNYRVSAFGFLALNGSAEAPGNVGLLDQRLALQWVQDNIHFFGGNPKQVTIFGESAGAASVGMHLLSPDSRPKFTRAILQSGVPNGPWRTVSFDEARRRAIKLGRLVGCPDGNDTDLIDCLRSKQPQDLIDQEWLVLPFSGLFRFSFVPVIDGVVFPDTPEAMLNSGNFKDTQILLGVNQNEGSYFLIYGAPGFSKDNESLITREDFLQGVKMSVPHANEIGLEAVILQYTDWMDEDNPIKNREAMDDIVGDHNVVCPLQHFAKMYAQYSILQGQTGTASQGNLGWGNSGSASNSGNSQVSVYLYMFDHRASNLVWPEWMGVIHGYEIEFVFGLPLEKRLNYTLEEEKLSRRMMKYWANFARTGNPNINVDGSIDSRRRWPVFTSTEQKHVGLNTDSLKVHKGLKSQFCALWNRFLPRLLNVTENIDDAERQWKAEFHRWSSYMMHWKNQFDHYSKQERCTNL

Sequence of Cholinesterase (P81908 whole entry): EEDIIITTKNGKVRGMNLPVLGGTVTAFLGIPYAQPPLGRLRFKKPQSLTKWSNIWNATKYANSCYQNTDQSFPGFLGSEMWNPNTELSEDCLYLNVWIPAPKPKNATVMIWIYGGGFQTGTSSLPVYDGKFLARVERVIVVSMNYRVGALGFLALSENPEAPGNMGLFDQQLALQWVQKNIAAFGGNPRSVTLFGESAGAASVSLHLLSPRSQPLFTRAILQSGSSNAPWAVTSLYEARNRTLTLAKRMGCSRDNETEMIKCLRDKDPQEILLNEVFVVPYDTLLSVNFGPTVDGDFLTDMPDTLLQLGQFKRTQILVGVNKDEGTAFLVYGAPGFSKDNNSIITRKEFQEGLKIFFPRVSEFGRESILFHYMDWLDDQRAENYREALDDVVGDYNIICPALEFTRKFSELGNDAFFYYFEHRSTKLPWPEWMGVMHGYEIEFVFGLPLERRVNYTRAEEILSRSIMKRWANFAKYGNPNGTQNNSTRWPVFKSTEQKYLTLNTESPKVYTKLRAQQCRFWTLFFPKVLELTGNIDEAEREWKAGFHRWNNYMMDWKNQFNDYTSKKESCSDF
T1 sequence (O42275 whole entry): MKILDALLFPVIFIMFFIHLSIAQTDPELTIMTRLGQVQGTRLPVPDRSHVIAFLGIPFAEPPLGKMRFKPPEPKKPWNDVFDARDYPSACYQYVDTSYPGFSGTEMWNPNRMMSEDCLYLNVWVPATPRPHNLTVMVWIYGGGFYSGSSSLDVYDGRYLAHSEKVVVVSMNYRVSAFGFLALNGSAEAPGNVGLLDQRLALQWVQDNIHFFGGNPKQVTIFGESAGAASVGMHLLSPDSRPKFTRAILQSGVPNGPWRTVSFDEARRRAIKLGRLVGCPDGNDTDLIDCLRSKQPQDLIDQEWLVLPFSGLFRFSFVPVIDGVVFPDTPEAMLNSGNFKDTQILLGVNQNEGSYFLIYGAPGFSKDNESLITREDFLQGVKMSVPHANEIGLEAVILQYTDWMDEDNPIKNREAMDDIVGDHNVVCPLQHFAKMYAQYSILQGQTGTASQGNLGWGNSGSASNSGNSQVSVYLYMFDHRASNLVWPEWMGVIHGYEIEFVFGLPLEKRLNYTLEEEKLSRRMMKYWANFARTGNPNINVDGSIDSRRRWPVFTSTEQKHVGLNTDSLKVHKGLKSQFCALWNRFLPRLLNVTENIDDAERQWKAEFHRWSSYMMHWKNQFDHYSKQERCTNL

Structure (SMILES) | IC50 (Cholinesterase) | IC50 (Acetylcholinesterase [1]) | other results
CCCCCC1c2c(nc3c(c2N)CCCC3)-n2c(=O)c3ccccc3c(=O)n21 (centres undefined) | > 100000 nM | 612 nM | 
Nc1c2c(nc3c1C(c1ccccc1Cl)n1c(=O)c4ccccc4c(=O)n1-3)CCCC2 (centres undefined) | > 100000 nM | 592 nM | 
Nc1c2c(nc3c1C(c1cccc(Br)c1)n1c(=O)c4ccccc4c(=O)n1-3)CCCC2 (centres undefined) | > 100000 nM | 271 nM | 
Nc1c2c(nc3c1C(c1ccccc1Br)n1c(=O)c4ccccc4c(=O)n1-3)CCCC2 (centres undefined) | > 100000 nM | 599 nM | 
Cc1ccccc1C1c2c(nc3c(c2N)CCCC3)-n2c(=O)c3ccccc3c(=O)n21 (centres undefined) | > 100000 nM | 193 nM | 
Nc1c2c(nc3c1C(c1ccccc1)n1c(=O)c4ccccc4c(=O)n1-3)CCCC2 (centres undefined) | > 100000 nM | 614 nM | 
Nc1c2c(nc3c1C(c1ccc(Br)cc1)n1c(=O)c4ccccc4c(=O)n1-3)CCCC2 (centres undefined) | > 100000 nM | 80 nM | viability at 24 h, 1 µM (in vitro [2]): 99.8%; viability at 24 h, 50 µM (in vitro [3]): 95.7%; viability at 24 h, 5 µM (in vitro [4]): 98.3%; viability at 24 h, 300 µM (in vitro [5]): 90%; viability at 24 h, 100 µM (in vitro [6]): 92.8%; viability at 24 h, 25 µM (in vitro [7]): 96.4%; viability at 24 h, 10 µM (in vitro [8]): 97.6%
CCCC1c2c(nc3c(c2N)CCCC3)-n2c(=O)c3ccccc3c(=O)n21 (centres undefined) | > 100000 nM | 1630 nM | 
Cc1ccc(C2c3c(nc4c(c3N)CCCC4)-n3c(=O)c4ccccc4c(=O)n32)cc1 (centres undefined) | > 100000 nM | 100 nM | 
Nc1c2c(nc3c1C(c1ccccc1F)n1c(=O)c4ccccc4c(=O)n1-3)CCCC2 (centres undefined) | > 100000 nM | 618 nM | 
Nc1c2c(nc3c1C(c1ccc(F)cc1)n1c(=O)c4ccccc4c(=O)n1-3)CCCC2 (centres undefined) | > 100000 nM | 69 nM | viability at 24 h, 1 µM (in vitro [2]): 91.2%; viability at 24 h, 50 µM (in vitro [3]): 75.9%; viability at 24 h, 5 µM (in vitro [4]): 87.5%; viability at 24 h, 300 µM (in vitro [5]): 66.4%; viability at 24 h, 100 µM (in vitro [6]): 71.4%; viability at 24 h, 25 µM (in vitro [7]): 80%; viability at 24 h, 10 µM (in vitro [8]): 83.3%
O=c1c(O)c(-c2ccc(O)c(O)c2)oc2cc(O)cc(O)c12 |  |  | Activity (PC-12 [9]): Active
Nc1c2c(nc3c1C(c1cccc([N+](=O)[O-])c1)n1c(=O)c4ccccc4c(=O)n1-3)CCCC2 (centres undefined) | > 100000 nM | 140 nM | 
COc1ccccc1C1c2c(nc3c(c2N)CCCC3)-n2c(=O)c3ccccc3c(=O)n21 (centres undefined) | 93300 nM | 49 nM | viability at 24 h, 1 µM (in vitro [2]): 96.3%; viability at 24 h, 50 µM (in vitro [3]): 87.3%; Activity (PC-12 [10]): inactive; viability at 24 h, 5 µM (in vitro [4]): 95%; Activity (PC-12 [11]): Non-Toxic; viability at 24 h, 300 µM (in vitro [5]): 83%; viability at 24 h, 100 µM (in vitro [6]): 86.4%; viability at 24 h, 25 µM (in vitro [7]): 90.2%; Activity (PC-12 [12]): Active; viability at 24 h, 10 µM (in vitro [8]): 95.2%; Ki (Acetylcholinesterase [13]): 12.6 nM; Activity (PC-12 [9]): inactive
COc1cc(OC)cc(C2c3c(nc4c(c3N)CCCC4)-n3c(=O)c4ccccc4c(=O)n32)c1 (centres undefined) | > 100000 nM | 3370 nM | 
Cc1cccc(C2c3c(nc4c(c3N)CCCC4)-n3c(=O)c4ccccc4c(=O)n32)c1 (centres undefined) | > 100000 nM | 467 nM | 
Nc1c2c(nc3c1C(c1cccc(F)c1)n1c(=O)c4ccccc4c(=O)n1-3)CCCC2 (centres undefined) | 37200 nM | 23 nM | Ratio IC50 [14]: 15; viability at 24 h, 1 µM (in vitro [2]): 93.5%; viability at 24 h, 50 µM (in vitro [3]): 78.8%; viability at 24 h, 5 µM (in vitro [4]): 90.9%; viability at 24 h, 300 µM (in vitro [5]): 68.2%; viability at 24 h, 100 µM (in vitro [6]): 74.8%; viability at 24 h, 25 µM (in vitro [7]): 82.7%; viability at 24 h, 10 µM (in vitro [8]): 86.1%
Nc1c2c(nc3c1C(c1ccc([N+](=O)[O-])cc1)n1c(=O)c4ccccc4c(=O)n1-3)CCCC2 (centres undefined) | > 100000 nM | 310 nM | 
Nc1c2c(nc3c1C(c1ccc(Cl)cc1)n1c(=O)c4ccccc4c(=O)n1-3)CCCC2 (centres undefined) | 96200 nM | 60 nM | viability at 24 h, 1 µM (in vitro [2]): 98.6%; viability at 24 h, 50 µM (in vitro [3]): 92.4%; viability at 24 h, 5 µM (in vitro [4]): 96.2%; viability at 24 h, 300 µM (in vitro [5]): 89.3%; viability at 24 h, 100 µM (in vitro [6]): 91.3%; viability at 24 h, 25 µM (in vitro [7]): 94.4%; viability at 24 h, 10 µM (in vitro [8]): 95.1%
Nc1c2c(nc3c1C(c1cccc(O)c1)n1c(=O)c4ccccc4c(=O)n1-3)CCCC2 (centres undefined) | > 100000 nM | 160 nM | 
CC1c2c(nc3c(c2N)CCCC3)-n2c(=O)c3ccccc3c(=O)n21 (centres undefined) | > 100000 nM | 2150 nM | 
Nc1c2c(nc3c1C(c1ccccc1[N+](=O)[O-])n1c(=O)c4ccccc4c(=O)n1-3)CCCC2 (centres undefined) | > 100000 nM | 280 nM | 
